Data published in patent US6906205B2, “Spiro and dispiro 1,2,4-trioxolane antimalarials” (Medicines for Malaria Venture MMV, priority 2002, dated 2005).
≈ marks a conversion by molar mass, not a printed value.

Tests used:
[1] = system: P. falciparum NF54 strain (sensitive to standard antimalarials); assay: semiautomated microdilution assay, [3H]-hypoxanthine incorporation, NF54 strain; format: cell-based, Plasmodium falciparum; details: NF54 strain, 72 h incubation
Method: (§1) Various OZ compounds were tested by the semiautomated microdilution assay against intraerythrocytic forms of Plasmodium falciparum derived from asynchronous stock cultures.
(§2) Fifty percent inhibitory concentration (IC50) were estimated by Logit regression analysis.

[2] = system: P. falciparum K1 strain (Thailand resistant to chloroquine); assay: semiautomated microdilution assay, [3H]-hypoxanthine incorporation, K1 strain; format: cell-based, Plasmodium falciparum; details: K1 strain, 72 h incubation
Method: as §1, §2

[3] = system: ANKA strain of P. berghei; assay: single dose STI in vivo screen in infected mice; design: species or system Plasmodium berghei; details: for Activity (%) po / Activity (%) sc / Activity (%) SSVpo: percent reduction in parasitemia day 3 post-infection, mice; for Activity (%) po / Survival (days) po: single 10 mg/kg po in 3% ethanol and 7% Tween 80; for Activity (%) sc / Survival (days) sc: single 10 mg/kg sc in 3% ethanol and 7% Tween 80; for Activity (%) SSVpo: single po dose in standard suspending vehicle (SSV); for Survival (days) po / Survival (days) sc / Survival (days) SSVpo: untreated control 5.6 ± 0.3; for Survival (days) SSVpo: single po dose in SSV
Method: In the single dose STI in vivo screen, Moro SPF or NMRI mice infected with the ANKA strain of P. berghei (groups of 3-5 mice) were treated on day one post-infection with trioxolanes dissolved or suspended in 3% ethanol and 7% Tween 80. […] SSV consists of 0.5% w/v CMC, 0.5% v/v benzyl alcohol, 0.4% v/v Tween 80, and 0.9% w/v sodium chloride in water. Antimalarial activity was measured by percent reduction in parasitemia on day three post-infection and survival times compared to an untreated control group. Survival to day 30 post-infection is considered to be a cure. […] Other factors influencing antimalarial activity include the stability of carbon radicals formed by β-scission subsequent to the initial electron transfer to the peroxide bond and the influence of steric effects remote from the peroxide bond on the interactions between carbon radicals and potential drug targets.

Row | Compound | IC50 (ng/ml) NF54 [1] | IC50 (ng/ml) K1 [2] | Activity (%) po [3] [%] | Activity (%) sc [3] [%] | Activity (%) SSVpo [3] [%] | Survival (days) po [3] | Survival (days) sc [3] | Survival (days) SSVpo [3] [days]
1 | O=C1c2ccccc2S(=O)(=O)N1C[C@H]1CC[C@]2(CC1)OOC1(O2)C2CC3CC(C2)CC1C3 (some centres unmarked) [OZ212] | 2.9 ng/mL (≈ 6.31 nM) | 2.7 ng/mL (≈ 5.88 nM) | 66 | 59 | 25 | 6.7 days | 8.0 days | 6.7
2 | O=S(=O)([O-])OC1CCC2(CC1)OOC1(O2)C2CC3CC(C2)CC1C3.[Na+] (centres unmarked) [OZ65] | 65 ng/mL | 57 ng/mL | 0 | 1 | – | 5.0/NA/5.0 days | 5.0/NA/5.0 days | –
3 | Clc1ccc(C2CCC3(CC2)OOC2(O3)C3CC4CC(C3)CC2C4)cc1 (centres unmarked) [OZ47] | 7.4 ng/mL (≈ 19.7 nM) | 7.5 ng/mL (≈ 20 nM) | 99.98 | 99 | – | 12.7 days | 8.0 days | –
4 | O=C(OC1CCC2(CC1)OOC1(O2)C2CC3CC(C2)CC1C3)c1ccccc1 (centres unmarked) [OZ74] | 3.5 ng/mL (≈ 9.1 nM) | 2.3 ng/mL (≈ 5.98 nM) | 63 | 99.97 | – | 6.3 days | 10.0 days | –
5 | O=C(O)C1(C(=O)O)COC2(CCC3(CC2)OOC2(O3)C3CC4CC(C3)CC2C4)OC1 (centres unmarked) [OZ122] | >100/>100 ng/ml | >100/>100 ng/ml | 10 | 0 | 3 | 5.7 days | 5.0 days | 5.3
6 | O=C(NC[C@H]1CC[C@]2(CC1)OOC1(O2)C2CC3CC(C2)CC1C3)c1ccncc1 (some centres unmarked) [OZ255] | 1.1 ng/mL (≈ 2.76 nM) | 2.2 ng/mL (≈ 5.52 nM) | 99.61 | 99.92 | 99.54 | 9.0 days | 10.0 days | 8.7
7 | O=C(O)CCC(=O)N[C@H]1CC[C@]2(CC1)OOC1(O2)C2CC3CC(C2)CC1C3 (some centres unmarked) [OZ196] | >10/>10 ng/ml | >10/>10 ng/ml | 10 | 17 | 0 | 6.0 days | 5.7 days | 5.3
8 | COC(=O)c1cn(C[C@H]2CC[C@]3(CC2)OOC2(O3)C3CC4CC(C3)CC2C4)cn1 (some centres unmarked) [OZ224] | 3.0 ng/mL (≈ 7.45 nM) | 2.0 ng/mL (≈ 4.97 nM) | 0 | 20 | 5 | 6.0 days | 5.7 days | 5.7
9 | O=C(O)c1ccc([C@H]2CC[C@]3(CC2)OOC2(O3)C3CC4CC(C3)CC2C4)cc1 (some centres unmarked) [OZ165] | > 10 ng/mL | 39 ng/mL (≈ 101 nM) | 18 | 9 | 3 | 6.3 days | 5.7 days | 6.0
10 | CC(C)(C)COC(=O)C1CCC2(CC1)OOC1(O2)C2CC3CC(C2)CC1C3 (centres unmarked) [OZ64] | 1.3 ng/mL (≈ 3.43 nM) | 1.5 ng/mL (≈ 3.96 nM) | 95 | 98 | – | 7.3 days | 8.0 days | –
11 | O=C(O)c1ccc(C[C@H]2CC[C@]3(CC2)OOC2(O3)C3CC4CC(C3)CC2C4)cc1 (some centres unmarked) [OZ214] | >10/>10 ng/ml | >10/>10 ng/ml | 44 | 65 | 54 | 6.3 days | 7.7 days | 7.3
